Several values for one entry are separate records, joined by “and”; a condition that tells them apart may be missing. Equal values may be shown once.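 Each compound was tested at five concentrations against cells in 96-well plates for 48 hours. Abbreviation: GI50, concentration required for 50% inhibition of growth. TGI is the concentration that stops growth completely.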
What was measured:
Assay in all cases: inhibition of tumour cell growth, NCI panel, 48 h
[1] = system: SNB-78 CNS
[2] = system: M19-MEL melanoma
[3] = system: M14 melanoma
[4] = system: DMS 273 small cell lung
[5] = system: OVCAR-4 ovarian
[6] = system: A498 renal
[7] = system: OVCAR-5 ovarian
[8] = system: DMS 114 small cell lung
[9] = system: DLD-1 colon
[10] = system: K-562 leukemia
[11] = system: PC-3 prostate
[12] = system: SK-MEL-5 melanoma
[13] = system: LXFL 529 NSCLC

Row | Structure (SMILES) | TGI [1] [µM] | TGI [2] [µM] | TGI [3] | TGI [4] [µM] | TGI [5] | TGI [6] | TGI [7] | TGI [8] [µM] | TGI [9] [µM] | TGI [10] | TGI [11] | TGI [12] | GI50 [3] [µM] | TGI [13] [µM] | GI50 [11] [µM] | GI50 [6] [µM] | GI50 [7] [µM] | GI50 [12] [µM] | GI50 [10] [µM]
1 | CCc1nc2c([nH]1)C(=O)c1ccccc1C2=O | > 100 | 31.8 | > 100 µM | > 100 | > 100 µM | > 100 µM | > 100 µM | 70.6 | > 100 | > 100 µM | – | – | – | – | – | – | – | – | –
2 | C[C@@](Br)(C(=O)O)[C@H](Br)C(=O)O | – | – | > 100 µM | – | > 100 µM | > 100 µM | > 100 µM | – | – | > 100 µM | > 100 µM | > 100 µM | – | – | – | – | – | – | –
3 | CC(=O)Nc1ccc2c(c1)nc1c3ccccc3ccn21 | – | – | > 100 µM | – | > 100 µM | > 100 µM | > 100 µM | – | – | > 100 µM | > 100 µM | > 100 µM | – | – | – | – | – | – | –
4 | CC(C)(C)[Si](C)(C)OC1CCOC1(O)c1ccccn1 (stereo not given) | – | – | > 100 µM | – | > 100 µM | > 100 µM | > 100 µM | – | – | > 100 µM | > 100 µM | > 100 µM | – | – | – | – | – | – | –
5 | C[N+]1(CCCCN2c3ccccc3Sc3cc(N=[N+]=[N-])ccc32)CCN(C(=O)CCNC(=O)Cc2ccc(C(=O)c3ccccc3)cc2)CC1 | – | – | > 72.9 µM | – | 48.8 µM | 56.3 µM | 56.1 µM | – | – | > 57.7 µM | 40.7 µM | > 62.6 µM | – | – | – | – | – | – | –
6 | C=C1C[C@@H]2CC[C@@]34CC5O[C@H]6C(O[C@H]7CC[C@H](CC(=O)O[C@@H]8[C@@H](C)[C@@H]9O[C@@H]%10C[C@]%11(C[C@@H]%12O[C@]%13(C[C@H](C)[C@@H]%14O[C@@H]%15CC(C(COC(C)=O)OC(C)=O)O[C@@H]%15C[C@@H]%14O%13)C[C@H](C)[C@@H]%12O%11)O[C@@H]%10C[C@@H]9O[C@H]8CC8O[C@@H](CC[C@@H]1O2)C[C@@H](C)C8(O)CO)O[C@@H]7[C@@H]6O3)[C@H]5O4 (stereo not given in full) | – | – | > 1 µM | – | > 1 µM | > 1 µM | > 1 µM | – | – | > 1 µM | > 1 µM | > 1 µM | – | – | – | – | – | – | –
7 | C/C(=C\CO)CC[C@@H]1[C@@]2(C)CCCC(C)(C)[C@@H]2CC[C@@]1(C)O | – | – | 53.6 µM | – | 34.2 µM | 30.7 µM | 49.3 µM | – | – | 34.7 µM | 30 µM | 31.8 µM | – | – | – | – | – | – | –
8 | O=c1cccc2n1CC1CNCC2C1 (stereo not given) | – | – | > 100 µM | – | > 100 µM | > 100 µM | > 100 µM | – | – | > 100 µM | > 100 µM | > 100 µM | – | – | – | – | – | – | –
9 | OC(CCN1CCN(CCOC(c2ccc(F)cc2)c2ccc(F)cc2)CC1)c1ccc(Br)cc1 (stereo not given) | – | – | 3.86 µM | – | 13.9 µM | 8.04 µM | 29.4 µM | – | – | 7 µM | 17.8 µM | 3.3 µM | – | – | – | – | – | – | –
10 | CCC(C)C(NC(=O)C(CCCC[N+](=N)N)NC(=O)C(CCCC[N+](=N)N)NC(=O)c1ccc(OC)cc1)C(=O)NC(CCCC[N+](=N)N)C(=O)N1CCCC1C(=O)NC(CCCCN)C(=O)NC(CC(C)C)C(N)=O (stereo not given) | – | – | > 100 µM | – | > 100 µM | > 100 µM | > 100 µM | – | – | > 100 µM | > 100 µM | > 100 µM | – | – | – | – | – | – | –
11 | Cc1nc2ccccc2n1Cc1ccc(NC(=S)Nc2ccccc2)cc1 | – | – | > 100 µM | – | > 100 µM | > 100 µM | > 100 µM | – | – | > 100 µM | > 100 µM | 56.6 µM | – | – | – | – | – | – | –
12 | O=C1C=CC(=O)c2c(O)c(N3CCN(c4ncccn4)CC3)c(Cl)c(O)c21 | – | – | 3.45 µM | – | 3.69 µM | 6.49 µM | 19.8 µM | – | – | 5.07 µM | 8.88 µM | 3.79 µM | – | – | – | – | – | – | –
13 | CN(C)CN1C(=O)/C(=N\n2c(-c3ccncc3)n[nH]c2=S)c2ccccc21 | – | – | 70.4 µM | – | 45.2 µM | > 100 µM | > 100 µM | – | – | > 100 µM | > 100 µM | > 100 µM | – | – | – | – | – | – | –
14 | COC(=O)[C@@H]1[C@H]2CC[C@]3(C)[C@@H](OC(C)=O)CC[C@H]3[C@@H]2CC[C@H]1C1(C)SCCS1 | – | – | 44 µM | – | 75.2 µM | > 100 µM | 50.8 µM | – | – | 94 µM | 86 µM | 21.4 µM | – | – | – | – | – | – | –
15 | O=C1c2cccnc2C(=O)c2c1nc1ccccc1c2-c1ccc2c3c(nc4ccccc42)C(=O)c2cccnc2-c13 | – | – | 4.55 µM | – | 14 µM | 6.05 µM | 33.6 µM | – | – | > 35.3 µM | 37.2 µM | 1.77 µM | – | – | – | – | – | – | –
16 | O=C(CCl)Nc1ccc(C(=O)N/N=C/c2ccc(Cl)cc2)cc1 | 15.8 | 25.6 | 3.42 µM and 18.3 µM | 4.12 | 4.48 µM and 4.43 µM | 4.85 µM and 26.7 µM | 3.6 µM and 33.1 µM | 2.94 | 4.93 | 4.04 µM and 7.46 µM | 3.53 µM and 21.9 µM | 4.45 µM and 13.6 µM | 1.89 | 3.2 | 10.1 | 13 | 1.98 | 2.14 | 2
17 | Cc1ccc2nc(Nc3ccccc3C)c(Nc3ccccc3C)nc2c1 | – | – | 81.8 µM | – | > 100 µM | 69.6 µM | 47.5 µM | – | – | > 57.4 µM | > 100 µM | > 63.8 µM | – | – | – | – | – | – | –
18 | CC(C)(C)C#CI1OC(=O)c2ccccc21 | – | – | 15.3 µM | – | 8.08 µM | 24 µM | 21.9 µM | – | – | 11.7 µM | 19.5 µM | 15.5 µM | – | – | – | – | – | – | –
19 | C[C@@H](CCO)OC1OC(COC(=O)C(C)(C)C)C(OC(=O)C(C)(C)C)C(OC(=O)C(C)(C)C)C1OC(=O)C(C)(C)C (stereo not given in full) | – | – | > 100 µM | – | > 100 µM | > 100 µM | > 100 µM | – | – | > 100 µM | > 100 µM | 58.1 µM | – | – | – | – | – | – | –
20 | COc1ccc2c(c1)-c1nc(=S)n(CCN(C)C)c3ccc([N+](=O)[O-])c(c13)N2 | – | – | 7.43 µM | – | 13.3 µM | 24.5 µM | 8.04 µM | – | – | 2.13 µM | 4.36 µM | 7.61 µM | – | – | – | – | – | – | –
21 | Brc1ccc(/C(N=N/C(=N\Sc2ccccc2)c2ccc(Br)cc2)=N/Sc2ccccc2)cc1 | – | – | > 100 µM | – | > 100 µM | > 100 µM | > 100 µM | – | – | > 100 µM | > 100 µM | > 100 µM | – | – | – | – | – | – | –
22 | O=c1n(CCCN2CCOCC2)nc2n1-c1ccc3ccccc3c1SC2 | – | – | – | – | > 100 µM | > 100 µM | > 100 µM | – | – | > 100 µM | > 100 µM | 47.7 µM | – | – | – | – | – | – | –
23 | OCCN(CCO)c1ncnc2c1sc(=S)n2-c1ccccc1 | > 100 | > 100 | > 100 µM | > 100 | > 100 µM | > 100 µM | > 100 µM | > 100 | > 100 | > 100 µM | – | > 100 µM | – | > 100 | – | – | – | – | –

Reference: PubChem BioAssay (NCI)
